The values below come from patent US10696949B2, “Systems and methods for canine liver modeling” (Hepregen Corporation, priority 2015, dated 2020).

Like-named read-outs stand apart in the source and are kept apart here.

Type in all cases: cell-based
In one series the test system is dog hepatocytes. The series can be described thus: Dog hepatocyte hypertrophy in standard HepatoPac micropatterned co-culture. On the procedure:
In order to create micropatterned co-cultures, hepatocytes were seeded in serum-free hepatocyte medium on collagen-patterned 24-well cell culture plates, resulting in a hepatocyte pattern due to selective cell adhesion. The cells were washed with media 2 to 6 hours later to remove unattached cells and incubated with serum supplemented hepatocyte medium overnight. 3T3-J2 or BJ fibroblasts were seeded in serum-supplemented fibroblast medium 12-24 hours later to create co-cultures. Culture medium was replaced with hepatocyte medium 24 hours after fibroblast seeding and subsequently replaced every one to two days. Spent media was stored for biochemical assays.
(§1) Hepatocyte growth factor (HGF) was implicated as one of the contributing factors causing dog hepatocyte hypertrophy and motility in the co-culture (data not shown). […] In summation, chemical inhibition (for example, via dexamethasone and TGFB2) of HGF secretion in the standard HepatoPac™ format is sufficient to abrogate hepatocyte hypertrophy.

The test system of a further series is HGF. The series is described as follows: HGF secretion in standard HepatoPac co-culture under chemical inhibition. Particulars: standard HepatoPac format.
Text: as §1

The next series deals with hepatocytes. The series can be described thus: Hepatocyte hypertrophy in sandwich cultures with soluble HGF. Particulars: soluble HGF alone, data not shown.
Text: as §1

On to `O=C1c2ccccc2-n2c1nc1ccccc1c2=O` [tryptanthrin], for which, in the series with dog hepatocytes (standard HepatoPac format, 3T3-J2 stromal cells), the dog hepatocyte hypertrophy result is “decreased dog hepatocyte hypertrophy”. The “HGF level (secretion)” value in the series with HGF was “reduction in HGF”.
As to “Soluble human HGF: Hepatocyte growth factor, soluble human protein added to sandwich cultures”, the hepatocyte hypertrophy result in the series with hepatocytes was “did not result in hepatocyte hypertrophy”.
As to `C[C@H](CCC(=O)O)[C@H]1CC[C@H]2[C@@H]3[C@@H](O)C[C@@H]4C[C@H](O)CC[C@]4(C)[C@H]3CC[C@]12C` [UDCA], the dog hepatocyte hypertrophy entry in the series on dog hepatocytes was “decreased dog hepatocyte hypertrophy”. For the same compound, the “HGF level (secretion)” value with HGF is reported as “reduction in HGF”.
Take `C[C@@H]1C[C@H]2[C@@H]3CCC4=CC(=O)C=C[C@]4(C)[C@@]3(F)[C@@H](O)C[C@]2(C)[C@@]1(O)C(=O)CO` [dexamethasone]: the dog hepatocyte hypertrophy result in the series on dog hepatocytes was “diminished hypertrophy”.
Turning to “TGFB2: HGF-inhibiting agent; known chemical inhibitor of HGF secretion”, the dog hepatocyte hypertrophy entry in the series on dog hepatocytes was “diminished hypertrophy”. The “HGF level (secretion)” value with HGF is listed as “HGF knockdown”.
